# Measurements: patent US9133230B2, “Hydrazone derivatives having potent antitumor activity toward multi-drug resistant tumor cells” (THE UNITED STATES OF AMERICA AS REPRESENTED BY THE …, priority 2011, dated 2015)
# Key:
# Format in all cases: cell-based
# [1] = system: ovarian cancer cell lines; assay: NCI 60 human tumor cell line screen, ovarian; settings: Homo sapiens, arithmetic mean of two to nine cancer cell lines, read-out: Inhibitory concentration GI50, ovarian
# Source text: (§1) Selected compounds were submitted for testing in the organ-specific panel of human tumor cell lines at the National Cancer Institute, Bethesda, Md. This screen utilized 60 human tumor cell lines, representing leukemia, melanoma, and cancers of the lung, colon, brain, ovary, kidney, prostate, and breast (Boyd, M. R., “Status of the NCl preclinical antitumor drug discovery screen”. In Principles and practice of oncology updates; De Vita, V. T., Jr. Hellman, S., Rosenberg, S. A., Eds.; Lippincott: Philadelphia, Pa., 1989; Vol. 3, pp 1-12).
# (§2) The MG MID value is the average of the GI50 values for all the cell lines tested for drug concentrations in the range of 10^−4-10^−8 M (See website domain: dtp.nci.nih.gov/dtp).
# HL60-VCR = assay: MTS cytotoxicity on MDR tumor cells, HL60-VCR; settings: HL60/VCR, Vincristine (VCR) resistant, 72 hr incubation
# [2] = system: human breast carcinoma MCF-7; assay: MTS cytotoxicity assay, MCF-7; settings: Homo sapiens, MCF7, 48 h incubation
# How it was run: (§3)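 Log-phase human tumour cells plated at about 5000 cells/mL, left 24 h, then exposed to compound dilutions in triplicate for 48 h at 37 °C, 5% CO2. Viability read as MTS/PMS tetrazolium reduction after 2 h, absorbance at 490 nm.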
# CNS cancer cell lines = assay: NCI 60 human tumor cell line screen, CNS; settings: Homo sapiens, arithmetic mean of two to nine cancer cell lines, read-out: Inhibitory concentration GI50, CNS
# Source text: as §1, §2
# [3] = system: human colon carcinoma HCT-15; assay: MTS cytotoxicity assay, HCT-15; settings: Homo sapiens, HCT-15, 48 h incubation
# How it was run: as §3
# [4] = system: human colorectal carcinoma HT29; assay: Western blot of signal transduction pathways in HT29 cells; settings: HT29, IC50 dose
# Description: The newly synthesized hydrazones RPC038, RPC042, and RPC046 had shown anti-tumor activity against 60 human cancer cell lines panel of the National Cancer Institute and on multi-drug resistant cell lines. The present studies were conducted to evaluate their action on signal transduction pathways in human colorectal carcinoma HT29. All the three compounds were examined at their IC50 doses.
# Human colorectal carcinoma HT29 cells were obtained from the National Cancer Institute, Bethesda, Md., USA, and maintained in 5% CO2 at 37° C. in minimum essential media (Life Technologies, Inc., Grand Island, N.Y., USA) supplemented with 1% penicillin, streptomycin (Invitrogen, Carlsbad, Calif., USA), and 10% fetal bovine serum for optimal growth. HT29 cells (1×10^6) were plated in […], and 24 h later, fresh media was added and treated with the RPC038, RPC042 and RPC046 for indicated time points (2, 4, 8, 16 and 24 h). The cells were then washed with cold phosphate buffered saline (PBS) and taken in 1 ml PBS on ice and centrifuged at 4° C. The pellet was resuspended in appropriate volumes of radio immunoprecipitation assay buffer with protease inhibitor, kept on ice for 45 min and subsequently centrifuged at 4° C. An aliquot of supernatant (protein extract) was used to estimate the protein concentration. An aliquot of protein extract (40 μg) was subjected to Western blot analysis on a 12% polyacrylamide gel and transferred to nitrocellulose membrane. Blots were blocked, incubated with primary anti-pMEK, pERK, pJNK, pcjun, ERK, JNK, Cjun, Caspase-8, Caspase-6, PARP cleavage, or GAPDH antibodies (Cell Signaling Technology, Danvers, Mass.) and then conjugated with a secondary anti-mouse or an anti-rabbit horseradish […] antibody, and detected by ChemiDoc™ XRS+ System with Image Lab™ Software.
# HL60 = assay: MTS cytotoxicity on MDR tumor cells, HL60; settings: Homo sapiens, HL-60, Vincristine (VCR) sensitive, 72 hr incubation
# [5] = system: human cervical adenocarcinoma HeLa; assay: MTS cytotoxicity assay, HeLa; settings: Homo sapiens, HeLa, 48 h incubation
# How it was run: as §3
# breast cancer cell lines = assay: NCI 60 human tumor cell line screen, breast; settings: Homo sapiens, arithmetic mean of two to nine cancer cell lines, read-out: Inhibitory concentration GI50, breast
# Source text: as §1, §2
# [6] = system: 60 human tumor cell lines; assay: NCI 60 human tumor cell line screen, all cell lines
# Source text: as §1, §2
# colon cancer cell lines = assay: NCI 60 human tumor cell line screen, colon; settings: Homo sapiens, arithmetic mean of two to nine cancer cell lines, read-out: Inhibitory concentration GI50, colon
# Source text: as §1, §2
# leukemia cell lines = assay: NCI 60 human tumor cell line screen, leukemia; settings: Homo sapiens, arithmetic mean of two to nine cancer cell lines, read-out: Inhibitory concentration GI50, leukemia
# Source text: as §1, §2
smiles,measurement,setting,value
"C(=NNc1ncnc2[nH]cnc12)c1ccccn1 [I-18, 6-(2-(Pyridin-2-ylmethylene)hydrazinyl)-9H-purine]",GI50,[1],629 nM
same,GI50,HL60-VCR,700 nM
same,GI50,[2],3200 nM
same,GI50,CNS cancer cell lines,633 nM
same,GI50,[3],2000 nM
same,phosphorylation of ERK (time),[4]; Western blot pERK,4 h
same,phosphorylation of JNK,[4]; Western blot pJNK (results not shown),without phosphorylation of JNK
same,MEK activation (time),[4]; Western blot pMEK,2 h
same,activation of cjun (time),[4]; Western blot pcjun,6 h
same,Caspase activation,[4]; initial studies,Caspase-3 activation through Caspase-6 and not through Caspase-8
same,GI50,HL60,1200 nM
same,GI50,[5],1900 nM
same,GI50,breast cancer cell lines,1150 nM
same,mean GI50 (MG-MID),"[6]; Homo sapiens, average of the GI50 values for all the cell lines tested, drug concentrations 10^−4-10^−8 M, read-out: MG-MID (mean graph midpoint)",977 nM
same,cells found to be the most sensitive,"[6]; NCI screen, by cancer type","prostate, ovarian, CNS, and melanoma cancer cell lines"
same,GI50,colon cancer cell lines,1370 nM
same,GI50,leukemia cell lines,966 nM
